Laboratory results reported in US6737383B1, “Herbicidal oxadiazolidines” (priority 1999, dated 2004).

What was measured:
bedstraw = assay: Test B pre/postemergence bedstraw; format: in vivo, Galium aparine
Summary of the method: (§1)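 Response is a visual 0-to-10 score relative to untreated plants, where 0 means no effect and 10 means complete control, taken twelve to sixteen days after application. Treatments went onto soil at planting and onto foliage of 1- to 4-leaf plants, using a surfactant-containing non-phytotoxic solvent.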

blackgrass = assay: Test B pre/postemergence blackgrass; format: in vivo, Alopecurus myosuroides
Summary of the method: as §1

surinam grass = assay: Test B pre/postemergence surinam grass; format: in vivo, Brachiaria decumbens
Summary of the method: as §1

corn = assay: Test B pre/postemergence corn; format: in vivo, Zea mays
Summary of the method: as §1

crabgrass = assay: Test B pre/postemergence crabgrass; format: in vivo, Digitaria sanguinalis
Summary of the method: as §1

giant foxtail = assay: Test B pre/postemergence giant foxtail; format: in vivo, Setaria faberii
Summary of the method: as §1

morningglory = assay: Test B pre/postemergence morningglory; format: in vivo, Ipomoea hederacea
Summary of the method: as §1

pigweed = assay: Test B pre/postemergence pigweed; format: in vivo, Amaranthus retroflexus
Summary of the method: as §1

rape = assay: Test B pre/postemergence rape; format: in vivo, Brassica napus
Summary of the method: as §1

sugar beet = assay: Test B pre/postemergence sugar beet; format: in vivo, Beta vulgaris
Summary of the method: as §1

wheat = assay: Test B pre/postemergence wheat; format: in vivo, Triticum aestivum
Summary of the method: as §1

wild oat = assay: Test B pre/postemergence wild oat; format: in vivo, Avena fatua
Summary of the method: as §1

purple nutsedge = assay: Test B pre/postemergence purple nutsedge; format: in vivo, Cyperus rotundus
Summary of the method: as §1

rice = assay: Test B flood test rice; format: in vivo, Oryza sativa
Summary of the method: (§2)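 Flood test on plants grown to the 2-leaf stage; treated plants kept in greenhouse twelve to sixteen days, then visually rated against controls on a 0 (no effect) to 10 (complete control) scale.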

smallflower flatsedge = assay: Test B flood test smallflower flatsedge; format: in vivo, Cyperus difformis
Summary of the method: as §2

bamyardgrass = assay: Test B flood test barnyardgrass; format: in vivo, Echinochloa crus-galli
Summary of the method: as §2

[1] = Preemergence, Rate 62 g/ha, scale of 0 to 10 where 0 is no effect and 10 is complete control
[2] = Preemergence, Rate 125 g/ha, 0 is no effect, 10 is complete control
[3] = Preemergence, Rate 250 g/ha, scale 0 to 10, 0 is no effect, 10 is complete control
[4] = Preemergence, Rate 500 g/ha, scale 0 (no effect) to 10 (complete control)
[5] = Preemergence, Rate 500 g/ha, scale of 0 to 10 where 0 is no effect and 10 is complete control
[6] = Rate 62 g/ha, Postemergence, scale of 0 to 10 where 0 is no effect and 10 is complete control
[7] = Rate 125 g/ha, Postemergence, scale 0 to 10
[8] = Rate 500 g/ha, Postemergence, scale 0 to 10
[9] = Rate 62 g/ha, headed Pre-emergence (flood test species), scale 0 to 10 (0 no effect, 10 complete control)
[10] = Rate 125 g/ha, Pre-emergence, flood test species, scale 0 to 10 where 0 is no effect and 10 is complete control
[11] = Rate 250 g/ha, Pre-emergence, flood-test species, scale 0 to 10, 0 is no effect, 10 is complete control
[12] = Rate 500 g/ha, headed Pre-emergence (flood test species), scale 0 to 10 (0 no effect, 10 complete control)

With `CCc1cccc(C)c1-n1c(=O)on(C(=O)N(c2ccc(F)cc2)C(C)C)c1=O` [Compound 201] the “Bedstraw plant response rating” value (bedstraw; [1]) was 0, the “Bedstraw plant response rating (0 to 10 scale)” value (bedstraw; [2]) was 0 and the “Bedstraw plant response rating” value (bedstraw; [3]) was 0. For the same compound, the “Bedstraw plant response rating” value (bedstraw; [4]) was 0, the “Plant response rating, Bedstraw” value (bedstraw; [5]) was 0 and the “Bedstraw plant response rating” value (bedstraw; [6]) was 0. For the same compound, the “Bedstraw plant response rating” value (bedstraw; [7]) was 0, the “Plant response rating (0 to 10; 0 is no effect, 10 is complete control), Bedstraw” value (bedstraw; Rate 250 g/ha, Postemergence) was 0 and the “Bedstraw plant response rating” value (bedstraw; [8]) was 0. For the same compound, the “Blackgrass plant response rating” value (blackgrass; [1]) was 0, the “Blackgrass plant response rating (0 to 10 scale)” value (blackgrass; [2]) was 0 and the “Blackgrass plant response rating” value (blackgrass; [3]) was 4. The “Blackgrass plant response rating” value (blackgrass; [4]) was 4, the “Plant response rating, Blackgrass” value (blackgrass; [5]) was 4 and the “Blackgrass plant response rating” value (blackgrass; [6]) was 0. For the same compound, the “Blackgrass plant response rating” value (blackgrass; [7]) was 0, the “Plant response rating (0 to 10; 0 is no effect, 10 is complete control), Blackgrass” value (blackgrass; Rate 250 g/ha, Postemergence) was 0 and the “Blackgrass plant response rating” value (blackgrass; [8]) was 4. For the same compound, the “B. signalgrass plant response rating” value (surinam grass; [1]) was 0, the “B. signalgrass plant response rating (0 to 10 scale)” value (surinam grass; [2]) was 0 and the “B. signalgrass plant response rating” value (surinam grass; [3]) was 0. The “B. signalgrass plant response rating” value (surinam grass; [4]) was 0, the “Plant response rating, B. signalgrass” value (surinam grass; [5]) was 4 and the “B. signalgrass plant response rating” value (surinam grass; [6]) was 0. For the same compound, the “B. signalgrass plant response rating” value (surinam grass; Rate 125 g/ha, Postemergence, scale 0 (no effect) to 10 (complete control)) was 0, the “Plant response rating, B. signalgrass” value (surinam grass; Rate 250 g/ha, Postemergence, scale 0 to 10, 0 is no effect, 10 is complete control) was 0 and the “B. signalgrass plant response rating” value (surinam grass; Rate 500 g/ha, Postemergence, scale 0 to 10, 0 no effect, 10 complete control) was 0. For the same compound, the “Corn plant response rating” value (corn; [1]) was 0, the “Corn plant response rating (0 to 10 scale)” value (corn; [2]) was 0 and the “Corn plant response rating” value (corn; [3]) was 0. For the same compound, the “Corn plant response rating” value (corn; [4]) was 0, the “Plant response rating, Corn” value (corn; [5]) was 0 and the “Corn plant response rating” value (corn; [6]) was 0. For the same compound, the “Corn plant response rating” value (corn; [7]) was 0, the “Plant response rating (0 to 10; 0 is no effect, 10 is complete control), Corn” value (corn; Rate 250 g/ha, Postemergence) was 0 and the “Corn plant response rating” value (corn; [8]) was 0. For the same compound, the “Crabgrass plant response rating” value (crabgrass; [1]) was 0, the “Crabgrass plant response rating (0 to 10 scale)” value (crabgrass; [2]) was 5 and the “Crabgrass plant response rating” value (crabgrass; [3]) was 9. The “Crabgrass plant response rating” value (crabgrass; [4]) was 4, the “Plant response rating, Crabgrass” value (crabgrass; [5]) was 9 and the “Crabgrass plant response rating” value (crabgrass; [6]) was 0. For the same compound, the “Crabgrass plant response rating” value (crabgrass; [7]) was 0, the “Plant response rating (0 to 10; 0 is no effect, 10 is complete control), Crabgrass” value (crabgrass; Rate 250 g/ha, Postemergence) was 0 and the “Crabgrass plant response rating” value (crabgrass; [8]) was 0. The “Giant foxtail plant response rating” value (giant foxtail; [1]) was 2, the “Giant foxtail plant response rating (0 to 10 scale)” value (giant foxtail; [2]) was 6 and the “Giant foxtail plant response rating” value (giant foxtail; [3]) was 8. For the same compound, the “Giant foxtail plant response rating” value (giant foxtail; [4]) was 10, the “Plant response rating, Giant foxtail” value (giant foxtail; [5]) was 10 and the “Giant foxtail plant response rating” value (giant foxtail; [6]) was 0. For the same compound, the “Giant foxtail plant response rating” value (giant foxtail; [7]) was 0, the “Plant response rating (0 to 10; 0 is no effect, 10 is complete control), Giant foxtail” value (giant foxtail; Rate 250 g/ha, Postemergence) was 0 and the “Giant foxtail plant response rating” value (giant foxtail; [8]) was 0. The “Morningglory plant response rating” value (morningglory; [1]) was 0, the “Morningglory plant response rating (0 to 10 scale)” value (morningglory; [2]) was 0 and the “Morningglory plant response rating” value (morningglory; [3]) was 0. For the same compound, the “Morningglory plant response rating” value (morningglory; [4]) was 0, the “Plant response rating, Morningglory” value (morningglory; [5]) was 0 and the “Morningglory plant response rating” value (morningglory; [6]) was 1. The “Morningglory plant response rating” value (morningglory; [7]) was 1, the “Plant response rating (0 to 10; 0 is no effect, 10 is complete control), Morningglory” value (morningglory; Rate 250 g/ha, Postemergence) was 1 and the “Morningglory plant response rating” value (morningglory; [8]) was 3. For the same compound, the “Redroot pigweed plant response rating” value (pigweed; [1]) was 0, the “Redroot pigweed plant response rating (0 to 10 scale)” value (pigweed; [2]) was 0 and the “Redroot pigweed plant response rating” value (pigweed; [3]) was 0. For the same compound, the “Redroot pigweed plant response rating” value (pigweed; [4]) was 0, the “Plant response rating, Redroot pigweed” value (pigweed; [5]) was 0 and the “Redroot pigweed plant response rating” value (pigweed; [6]) was 0. For the same compound, the “Redroot pigweed plant response rating” value (pigweed; [7]) was 0, the “Plant response rating (0 to 10; 0 is no effect, 10 is complete control), Redroot pigweed” value (pigweed; Rate 250 g/ha, Postemergence) was 0 and the “Redroot pigweed plant response rating” value (pigweed; [8]) was 3. For the same compound, the “Rape plant response rating” value (rape; [1]) was 0, the “Rape plant response rating (0 to 10 scale)” value (rape; [2]) was 0 and the “Rape plant response rating” value (rape; [3]) was 0. For the same compound, the “Rape plant response rating” value (rape; [4]) was 0, the “Plant response rating, Rape” value (rape; [5]) was 0 and the “Rape plant response rating” value (rape; [6]) was 0. For the same compound, the “Rape plant response rating” value (rape; [7]) was 0, the “Plant response rating (0 to 10; 0 is no effect, 10 is complete control), Rape” value (rape; Rate 250 g/ha, Postemergence) was 0 and the “Rape plant response rating” value (rape; [8]) was 0. The “Sugarbeets plant response rating” value (sugar beet; [1]) was 0, the “Sugarbeets plant response rating (0 to 10 scale)” value (sugar beet; [2]) was 0 and the “Sugarbeets plant response rating” value (sugar beet; [3]) was 0. The “Sugarbeets plant response rating” value (sugar beet; [4]) was 0, the “Plant response rating, Sugarbeets” value (sugar beet; [5]) was 0 and the “Sugarbeets plant response rating” value (sugar beet; [6]) was 0. For the same compound, the “Sugarbeets plant response rating” value (sugar beet; [7]) was 0, the “Plant response rating (0 to 10; 0 is no effect, 10 is complete control), Sugarbeets” value (sugar beet; Rate 250 g/ha, Postemergence) was 3 and the “Sugarbeets plant response rating” value (sugar beet; [8]) was 4. The “Wheat plant response rating” value (wheat; [1]) was 0, the “Wheat plant response rating” value (wheat; [3]) was 0 and the “Wheat plant response rating” value (wheat; [4]) was 0. The “Plant response rating, Wheat” value (wheat; [5]) was 2, the “Wheat plant response rating” value (wheat; [6]) was 0 and the “Wheat plant response rating” value (wheat; [7]) was 0. For the same compound, the “Plant response rating (0 to 10; 0 is no effect, 10 is complete control), Wheat” value (wheat; Rate 250 g/ha, Postemergence) was 0, the “Wild oats plant response rating” value (wild oat; [1]) was 0 and the “Wild oats plant response rating” value (wild oat; [3]) was 3. The “Wild oats plant response rating” value (wild oat; [4]) was 0, the “Plant response rating, Wild oats” value (wild oat; [5]) was 5 and the “Wild oats plant response rating” value (wild oat; [6]) was 0. The “Wild oats plant response rating” value (wild oat; [7]) was 0, the “Plant response rating (0 to 10; 0 is no effect, 10 is complete control), Wild oats” value (wild oat; Rate 250 g/ha, Postemergence) was 0 and the “Nutsedge plant response rating” value (purple nutsedge; [1]) was 0. For the same compound, the “Nutsedge plant response rating (0 to 10 scale)” value (purple nutsedge; [2]) was 0, the “Nutsedge plant response rating” value (purple nutsedge; [4]) was 0 and the “Nutsedge plant response rating” value (purple nutsedge; [6]) was 0. For the same compound, the “Nutsedge plant response rating” value (purple nutsedge; [7]) was 0, the “Plant response rating (0 to 10; 0 is no effect, 10 is complete control), Nutsedge” value (purple nutsedge; Rate 250 g/ha, Postemergence) was 0 and the “Nutsedge plant response rating” value (purple nutsedge; [8]) was 0. The “Rice plant response rating” value (rice; [9]) was 0, the “Rice plant response rating” value (rice; [10]) was 0 and the “Rice plant response rating” value (rice; [11]) was 0. For the same compound, the “Plant response rating, Rice” value (rice; [12]) was 0, the “S. Flatsedge plant response rating” value (smallflower flatsedge; [9]) was 0 and the “S. Flatsedge plant response rating” value (smallflower flatsedge; [10]) was 0. For the same compound, the “S. Flatsedge plant response rating” value (smallflower flatsedge; [11]) was 0, the “S. Flatsedge plant response rating” value (smallflower flatsedge; Rate 500 g/ha, Pre-emergence, flood test species, scale 0 to 10 (0 no effect, 10 complete control)) was 7 and the “Barnyardgrass plant response rating” value (bamyardgrass; [9]) was 0. The “Barnyardgrass plant response rating” value (bamyardgrass; [10]) was 0, the “Barnyardgrass plant response rating” value (bamyardgrass; [11]) was 0 and the “Plant response rating, Barnyardgrass” value (bamyardgrass; [12]) was 9.
